87 compounds from a melting point compilation (Tetko et al.; mined from patent text by program, amines drawn as free bases though some values may be those of a salt) can be followed below.

In turn, `CCOc1nn(-c2ccc(C(F)(F)F)cn2)cc1CCCOc1cccc(OC(C)(C)C(=O)O)c1` displayed a melting point of 120 to 121 °C.

As to `OCc1ccc2ncc(C(=S)NCc3ccc(Cl)cc3)c(O)c2c1`, the melting point lay within 240 to 242 °C. `CC12CCC(O)CC1CCC1C2CCC2(C)C(C(=O)CSc3ccncc3)CCC12` (configuration not stated) showed a melting point of 154 to 156 °C. In the case of `O=[N+]([O-])c1ccc(Sc2ccccc2)c(CO)c1`, the melting point lay in the range of 104 to 107 °C. Take `CCOC(=O)C(NC(C)=O)(C(=O)OCC)[C@@H]1CC(=O)C[C@H]1NC(=O)OC(C)(C)C` (relative stereo): the melting point lay within 135 to 136 °C. Compound `CCOC1(C(Cl)(Cl)Cl)NC(=O)C(=O)N1` gave a melting point of 189 to 201 °C. Regarding `COC(=O)c1ccc(NC(=O)C(CC2CCCC2)c2ccc(F)c(C(F)(F)F)c2)nc1` (configuration not stated), the melting point lay in the range of 270 to 275 °C.

`OC(CNC1CC1)c1cccc(Cl)c1` (configuration not stated) yielded a melting point of 71.3 to 73.2 °C. As to `O=C(Cc1c[nH]c2ccccc12)NCCN1CCC(Nc2nc3ccccc3n2Cc2ccc(F)cc2)CC1`, the melting point was 194 °C. Next, `CCOC(=O)OC1=C(c2c(C)cc(C)cc2C)C(=O)NC1C1CCN(OC)CC1` (configuration not stated): 154 to 155 °C. With `Cc1cc([N+](=O)[O-])ccc1NCCCn1ccnc1`, the melting point is 163 °C.

In the case of `Cc1ccc(Cn2c(=O)c3c(Cl)cc(Cl)cc3n(Cc3ccccc3)c2=O)cc1C`, the melting point is 126 to 132 °C. `N[C@@H]1C(=O)N(S(=O)(=O)O)[C@H]1C1CCCCC1` (relative stereo) came in with a melting point of 135 to 138 °C. As for `CCOC(=O)N1CCC(C(=O)Cl)CC1`, the melting point was 96 to 98 °C. Next, `O=C1C2CCCCC2=Nc2ccccc2N1Cc1ccccc1` (configuration not stated): 123 to 125 °C; `Cc1noc(NS(=O)(=O)c2ccccc2-c2ccc(C(F)(F)F)cc2)c1C`: 57 to 62 °C; `COc1cc(C=O)ccc1OC(=O)NCCc1ccccc1`: 133 to 138 °C. `CSC(=C[N+](=O)[O-])NCCSCc1csc(NC(=N)N)n1` returned a melting point of 151 to 156 °C. `C[Si](C)(C)C#Cc1cc(F)cnc1N` yielded a melting point of 65 °C. The compound `CCOc1nn(-c2ccc(C(F)(F)F)cc2)cc1CCCOc1cccc(CC(=O)O)c1` had a melting point of 108 to 109 °C.

Turning to `Cc1cc(C2(C(F)(F)F)ON=C(c3ccc(F)cc3)O2)ccc1NC(=O)c1cccc(I)c1C(=O)NC(C)C` (configuration not stated), the melting point lay in the range of 99 to 112 °C. In the case of `CCN1CC(=O)N(c2ccc(Cl)cc2Cl)C1=S`, the melting point lay within 144 to 146 °C. Next, `Cc1cc(C)n(Cc2ccc(Cl)cc2Cl)c1C=O`: 88 to 89 °C. In turn, `Cc1ccc(S(=O)(=O)OCC2COc3ccc4nccnc4c3O2)cc1` (configuration not stated) registered a melting point of 124 to 127 °C.

With `Fc1ccc(-c2n[nH]cc2-c2ccnc(NC3CC3)n2)cc1`, the melting point lay in the range of 203 to 204 °C.

For `c1ccc(NN2CCc3ccccc32)cc1`, the melting point was 182 to 183 °C. For `CNC(=O)Nc1cc(C2(C)CC2)on1`, the melting point is 144 to 147 °C. Next, `COc1ccc2nc3snc(C(=O)c4ncc(C)c(OC)c4C)n3c2c1`: 196 to 197 °C; `CC(CCO)C(c1cc(F)ccc1F)S(=O)(=O)c1ccc(Cl)cc1` (configuration not stated): 65 to 67 °C. `COc1cccc(-c2nc(N)nc(Nc3ccc(O)cc3)n2)c1`: the melting point was in the range of 93.5 to 94 °C. Next, `CNC(=O)c1ccccc1C(=O)NCSc1ccncc1`: 118 to 121 °C; `COc1ccc(C=O)c(OC)c1I`: 103 °C. With `Cn1cc(C(=O)C(=O)Oc2c(F)c(F)c(F)c(F)c2F)c2ccccc21`, the melting point fell in the range of 168 to 169 °C. Regarding `CC=C1c2ccccc2CC(=O)c2ccccc21`, the melting point lay in the range of 93 to 95 °C. Regarding `O=C(C(Cl)(Cl)Cl)C1(c2ccc(Cl)cc2)C=CC=N1` (configuration not stated), the melting point is 166 to 168 °C. Compound `COc1cc(-c2ccccc2C(F)(F)F)c(Cl)cc1C(=O)N1Cc2ccc(C(=O)N(C)Cc3cccnc3)n2Cc2ccccc21` displayed a melting point of 124 to 126 °C. The figure for `CCCCc1cn2ccccc2c1S(=O)(=O)c1ccc(OS(=O)(=O)c2ccc(C)cc2)cc1` is 145 °C; for `CCCCCCCCCC(=O)c1ccc(OCc2ccc(C=C3SC(=S)NC3=O)cc2)c(CCC)c1O` it is 188 °C; for `COCCc1nc2c(N)nc3ccccc3c2n1CCCCNC(=O)c1nccc2ccccc12` it is 61 to 63 °C. For `O=[N+]([O-])c1ccc(Sc2cc(Cl)cc(Cl)c2)c(S(=O)(=O)NC2CN3CCC2CC3)c1` (configuration not stated), the melting point was determined as 256 °C. `COc1ccc(C(=O)Nc2c(Cl)cncc2Cl)c2c1OCC2CC(=O)NCc1ccccc1` (configuration not stated): the melting point was in the range of 284 to 286 °C.

Regarding `CC(C)(C)c1ccc(CCN2C(=O)COc3ccc(C=C4SC(=S)NC4=O)cc32)cc1`, the melting point was in the range of 283 to 285 °C. As to `O=C(O)CC(Cn1cnc2c(=O)[nH]cnc21)C(=O)O` (configuration not stated), the melting point is 130 to 135 °C. For the compound `O=C(O)C1=Cc2cc(Cl)c(Oc3ccccn3)cc2OC1C(F)(F)F` (configuration not stated), the melting point fell in the range of 234 to 235 °C. `C[C@@H](NC(=O)c1csc(-c2ccc(Cl)cc2)n1)[C@](O)(Cn1cncn1)c1ccc(F)cc1F` registered a melting point of 201 to 204 °C. `O=c1c2cc(F)c(F)cc2nc(C(S)c2ncnc3[nH]cnc23)n1-c1ccccc1Cl` (configuration not stated) registered a melting point of 208 °C. Turning to `CC(=O)NCCn1ccc2ncnc(Nc3ccc(Oc4cccc5sncc45)c(Cl)c3)c21`, the melting point fell in the range of 222 to 224 °C. Take `CCCCCS(=O)(=O)NC(=O)/C=C/c1cc(OC2CCOCC2)nn1Cc1ccc(C(F)(F)F)cc1Cl`: the melting point lay within 160 to 161 °C. With `CCCn1c(=O)c2[nH]c(/C=C/c3ccc(OCOC)c(OC)c3)nc2n(CCC)c1=O`, the melting point amounted to 227 °C. `O=C(CCc1ccc2ccccc2c1)c1cnc2sc3c(n12)CCCCC3` showed a melting point of 76 to 78 °C. In turn, `CC(C)(C)SC1CC(=O)N1CC(=O)OCc1ccc([N+](=O)[O-])cc1` (configuration not stated) yielded a melting point of 82.5 to 84 °C. Turning to `CC(OCc1cc2cc(Cl)ccc2n1S(=O)(=O)c1ccc2c(c1)OCCN2C)C(=O)O` (configuration not stated), the melting point came out at 68 °C. As to `Cc1nc2c(C)cc(Oc3cnc(N)nc3N)c(C(C)C)c2o1`, the melting point was greater than 300 °C. Consider `COc1ccc(C(O)CN)cc1OCc1ccccc1` (configuration not stated), for which the melting point fell in the range of 101 to 102 °C.

Take `Cc1nc(CCN2CCOCC2)c2c(n1)N(CC#N)C(=O)C(N)O2` (configuration not stated): the melting point lay in the range of 126 to 128 °C. The figure for `CCOC(=O)c1cc2sc(C)c(N(C)C(=O)OCc3ccccc3)c2[nH]1` is 122 °C. Next, `O=C(N[C@H](Cc1ccc(C(F)(F)F)cc1)[C@@H](O)c1cccc2ccccc12)c1cccc2ccccc12` (racemic): 217 to 218 °C. The figure for `CCCc1c(OCc2cc(Br)cn3c(=O)c(CCC(=O)O)cnc23)ccc(C(C)=O)c1O` is 239 to 242 °C; for `N#Cc1cccc2c1CCC2=O` it is 122 °C.

Turning to `CCN(CC)C(=O)C=Cc1ccc(-c2ccccc2)cc1`, the melting point was 113 °C. The figure for `C=CCC1(C(=O)NCC)c2ccccc2Oc2ccccc21` is 111 to 112 °C.

For `FC(F)(F)CO[Si](c1ccccc1)(c1ccccc1)c1ccccc1`, the melting point worked out at 114 °C. In turn, `CC(CCCc1ccc(F)cc1)c1cc(O)c2c(c1)OC(C)(C)c1ccncc1-2` (configuration not stated) showed a melting point of 72 to 74 °C. `COc1cc2cc(CO)c(CO)c(-c3ccnc(NC(C)CCCO)c3)c2cc1OC` (configuration not stated) registered a melting point of 57 to 61 °C.

The compound `CC(=CC(=O)O)c1cccc([N+](=O)[O-])c1` registered a melting point of 147 to 149 °C. As for `COc1ccc(OC)c2c1C(=O)C=C(SCCO)C2=O`, the melting point lay in the range of 117 to 118 °C. `COCC(=O)N(c1c(C)ccc(Cl)c1C)C1CCOC1=O` (configuration not stated) displayed a melting point of 80 to 82 °C.

`CCc1ccc(CC2CNC(=O)O2)cc1` (configuration not stated): the melting point lay within 133 to 134 °C. The figure for `CCCCCCCC(=O)N1CCc2nnc(NN=C(C)C)cc2C1` is 118 to 121 °C; for `CC1(C)OC(=O)Nc2ccc(-c3ccc(F)c(Cl)c3)cc21` it is 211 to 212 °C.

The compound `CN1CN(C2CCCC2)CN(c2nc3c(s2)C(=O)CC(C)(C)C3)C1=O` returned a melting point of 181 to 183 °C. Consider `COc1cc(C(=O)Cc2ccccc2)cc([N+](=O)[O-])c1O`, for which the melting point fell in the range of 129 to 130 °C. As for `Cc1cc(NNC(=O)OC(C)(C)C)nnc1-c1ccc(C#N)cc1`, the melting point was in the range of 169 to 171 °C. The compound `COC1CCCC(C(=O)Nc2ccc(-n3nc(C(F)(F)F)cc3C(F)(F)F)cc2)C1` (configuration not stated) had a melting point of 145 to 147 °C. `O=c1[nH]c2ncc(-c3ccc(-c4cc[nH]n4)cc3)nc2n1CC1CCCCC1` had a melting point of 292 to 294 °C.

Compound `CN1CC=C(c2c[nH]c3ccc(C(=O)O)cc23)CC1` returned a melting point of 249 °C. Regarding `O=[N+]([O-])c1ccc(Oc2ccc(C(F)(F)F)cc2Cl)cc1C=NO`, the melting point was in the range of 111 to 115 °C.

With `CCOC(=O)c1nccc(Oc2ccc3c(C(=O)O)cccc3c2)n1`, the melting point is 214 to 217 °C. `Cc1cccc(-c2nc3cccnn3c2-c2ccnc(N(C(=O)C3CC3)C(=O)C3CC3)c2)c1` returned a melting point of 173 to 175 °C. Compound `CN1Cc2cccc(SCc3ccccc3)c2S1(=O)=O` yielded a melting point of 119 to 122 °C. Consider `Cn1cc(-c2cccc(N3Cc4cc(C(C)(C)C)ccc4C3=O)c2CO)nc(Nc2cccnc2)c1=O`, for which the melting point lay within 149 to 150 °C. `Cc1oc(-c2ccc(O)cc2)nc1CCOc1ccc(N)cc1` came in with a melting point of 184 to 185 °C.

In turn, `Cc1oc(-c2ccccc2)nc1COc1ccc(COc2ccc(-c3ccccc3)cc2CC(=O)O)cc1` gave a melting point of 102 to 103 °C. For `CCOC(=O)C(CC)Cc1ccc(N2C(=O)c3ccccc3C2=O)cc1` (configuration not stated), the melting point is 86 to 87 °C. The figure for `Cn1c(=O)ccc2cnc(S(C)(=O)=O)nc21` is 194 to 196 °C; for `OCCCc1ccc(Nc2ncc(-c3ccccc3)s2)nc1` it is 153 to 154 °C. `Cc1nc(-c2cc3cccc(NS(=O)(=O)c4cccs4)c3[nH]2)sc1C` displayed a melting point of 210 to 211 °C.
